Experimental data: US20240279215A1 (Cytokinetics, Incorporated, priority 2022, published 2024)
Read-outs that look alike come from different tables or passages of the source.

Experiments:
[1] = Brain exposure assay in mice (brain-to-plasma ratio after oral administration); type: in vivo; conditions: mouse, 100 mg/kg; for concentration at 6 h / Kp at 2 h / Kp uu at 2 h / Kp at 6 h / Kp uu at 6 h: male, C57BL/6JNIFDC, oral; for Kp at 2 h / Kp at 6 h: total brain-plasma concentration ratio; for Kp uu at 2 h / Kp uu at 6 h: unbound brain-to-plasma partition coefficient; for Kp at 2 h / Kp uu at 2 h / Cbrain, free (μM) / Cbrain, total (μM) / Cplasma, free (μM) / Cplasma, total (μM): 2 hr
Procedure: This protocol was used to determine the brain-to-plasma ratio in vivo in mice post oral administration of test compounds. Mice (C57BL/6JNIFDC, male, non-fasted, 18-30 g body weight, 3 mice for each timepoint) were dosed orally at 100 mg/kg (10 mg test compound/mL formulation, 10 mL dosing volume/kg) with plasma and brain tissues obtained at 2- and 6-hours post-administration. The oral dosing formulation composition used was 10% N,N-dimethylacetamide:20% propylene glycol:70% of 40% aqueous 2-hydroxypropyl-β-cyclodextrin.
For the isolation of mouse plasma from dosed animals, approximately 0.3 mL blood was collected by orbital sinus bleed and centrifuged (4000 g, 5 minutes, 4° C.). The plasma samples were stored frozen at −75±15° C. until further processing.
For the isolation of brain tissue from dosed animals, whole brain tissues were collected from euthanized and fully exsanguinated mice. The tissues were quickly rinsed with distilled water, dried with absorbent paper, followed by rapid freezing on dry ice and then storage at −75±15° C. until further processing. Brain tissue samples obtained from frozen whole brain were weighed and the samples homogenized using three equivalents of distilled water (3 mL per gram of brain tissue).
Standard and quality control samples were prepared by adding 3 μL of the test compound dimethyl sulfoxide (DMSO) stock solutions to blank plasma (30 μL) and blank brain homogenate aliquots (30 μL). Standard curves for brain and plasma were generated over a 1 to 1,000 ng/g test compound concentration range. For the extraction of test compound from plasma and brain tissue homogenate samples, a solution of acetonitrile containing internal standard ([…]) was added to 30 μL of samples with added 3 μL of DMSO. The samples then were vortex-mixed followed by centrifugation at 4000 rpm (4° C., 15 minutes). The resultant supernatants were diluted 5-fold with distilled water. Finally, 10 μL of the diluted supernatant was injected onto an LC-MS/MS instrument for quantitative analysis of test compound.
The brain-to-plasma ratio was calculated by the relationship: Brain-to-plasma ratio=Cbrain/Cplasma; where Cb is the concentration in brain tissue and Cp is the concentration in plasma at the corresponding timepoint.
Kp is the total brain-plasma concentration ratio; Kp=Cbrain/Cplasma.
Kp, uu is the unbound brain-to-plasma partition coefficient (Kp,uu,brain). It is a measure of the extent of the distribution equilibrium of a compound between the unbound (free) fractions in brain and in blood plasma; Kp, uu brain=Cu, brain/Cu, plasma.

[2] = Plasma protein binding (PPB), mouse; type: in vitro ADME
P-gp (MDR1) [3] = assay: MDR1-MDCK bidirectional permeability assay; conditions: dog, MDCK-MDR1, pH 7.4, Efflux ratio
Procedure: (§1) A bidirectional permeability assay using Madin Darby canine kidney cells expressing multi-drug resistance gene 1 (MDCK-MDR1) is routinely used to evaluate discovery compounds' BBB permeability and drug efflux toward the advancement of discovery compounds with brain penetration.
(§2) MDCK-MDR1 Cells (NIH cell line) were obtained from the National Institutes of Health. […] Cell culture medium was replaced every other day, beginning no later than 24 hours after the initial plating. […] The dosing solution concentration was 1 μM for the test article in the assay buffer. Cell monolayers were dosed on the apical side (A-to-B) or basolateral side (B-to-A) and incubated at 37° C. under an atmosphere of 5% CO2 in a humidified incubator. Samples were taken from the donor and receiver chambers at 120 minutes. Each determination was performed in duplicate. After the 120 min transport period, the flux of lucifer yellow was also measured for each monolayer to ensure no damage was inflicted to the cell monolayers during the transport period. All samples were assayed by LC-MS/MS (Waters XSelect HSS T3 C18, 2.5 m, 2.1×50 mm) using electrospray ionization with 0.1% formic acid in water (mobile phase A) and 0.1% formic acid in acetonitrile (mobile phase B) as mobile phases. The apparent permeability coefficient (Papp), in units of cm per second, was calculated for MDCK-MDR1 Cells (NIH cell line) drug transport assays using the following equation:
(§3) Where VA is the volume (in mL) in the acceptor well, Area is the surface area of the membrane (0.143 cm^2 for Transwell-96 Well Permeable Supports), and time is the total transport time in seconds.
(§4) The leakage of Lucifer Yellow (LY), in unit of percentage (%), can be calculated using the following equation:
(§5) LY leakage of <1% is acceptable to indicate the well-qualified MDCK-MDR1(NIH) monolayer.

[4] = system: MDCK-MDR1 cells (P-gp, MDR1); assay: MDR1-MDCK bidirectional permeability assay; conditions: A to B
Procedure: as §1, §2, §3, §4, §5

[5] = Brain tissue binding, mouse; type: in vitro ADME
human NAMPT = human NAMPT (Homo sapiens (Human), UniProt P43490); assay: NMN fluorescence biochemical assay (human recombinant NAMPT enzyme assay)
Chain of human NAMPT (P43490 whole entry): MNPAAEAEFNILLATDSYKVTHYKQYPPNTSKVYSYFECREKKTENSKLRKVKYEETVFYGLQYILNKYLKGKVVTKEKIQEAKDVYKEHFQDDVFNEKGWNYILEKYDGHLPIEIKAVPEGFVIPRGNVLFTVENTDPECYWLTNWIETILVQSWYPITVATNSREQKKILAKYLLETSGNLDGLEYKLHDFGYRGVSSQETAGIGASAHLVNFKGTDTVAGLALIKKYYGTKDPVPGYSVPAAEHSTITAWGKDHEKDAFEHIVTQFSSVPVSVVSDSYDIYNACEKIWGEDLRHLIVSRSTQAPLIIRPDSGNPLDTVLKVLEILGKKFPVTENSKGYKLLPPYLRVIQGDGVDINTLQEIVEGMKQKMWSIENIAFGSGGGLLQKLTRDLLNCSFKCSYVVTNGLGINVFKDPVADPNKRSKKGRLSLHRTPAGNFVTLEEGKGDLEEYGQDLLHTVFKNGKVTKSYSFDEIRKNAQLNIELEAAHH
In short: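 Activation of recombinant human NAMPT (6 nM) was tested with 2.5 mM ATP, 20 μM PRPP and 150 μM nicotinamide in 50 mM HEPES pH 7.2 for 60 min at ambient temperature. NMN was derivatized with acetophenone/KOH/formic acid and read by fluorescence (355/460 nm) after 40 min.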

[6] = system: MDCK-MDR1 cells (P-gp, MDR1); conditions: dog, MDCK-MDR1, 120 min, 1 μM, pH 7.4
Procedure: as §1, §2, §3, §4, §5

P-gp (MDR1) [7] = assay: in vitro; conditions: dog, MDCK-MDR1, pH 7.4, Efflux ratio
Procedure: as §1, §2, §3, §4, §5

[8] = plasma, read-out: Cplasma, free
[9] = plasma, read-out: Cplasma, total

SMILES	concentration at 6 h ([1]; brain, read-out: Cbrain, free) [µM]	concentration at 6 h ([1]; brain, read-out: Cbrain, total) [µM]	concentration at 6 h [1, 8] [µM]	concentration at 6 h [1, 9] [µM]	Kp at 2 h [1]	Kp uu at 2 h [1]	Kp at 6 h [1]	Kp uu at 6 h [1]	Cbrain, free (μM) [1]	Cbrain, total (μM) [1]	Cplasma, free (μM) [1]	Cplasma, total (μM) [1]	fraction unbound ([2]; mouse, plasma)	efflux ratio at 120 min, 1 μM (P-gp (MDR1) [3])	PappAB [4]	fraction unbound ([5]; mouse, brain tissue)	AC1.4 Human (human NAMPT) [µM]	EC50 (human NAMPT) [µM]	fraction unbound [2]	fraction unbound [5]	other results
CN(C)S(=O)(=O)N1CCC(Cc2ccc(NC(=O)OCc3cnco3)cc2)CC1 [Compound 27, oxazol-5-ylmethyl (4-((1-(N,N-dimethylsulfamoyl)piperidin-4-yl)methyl)phenyl)carbamate]	0.07	1.5	0.22	5.9	0.29	0.41	0.25	0.32	0.64, μM	12.0, μM	1.55, μM	42.1, μM	0.037	1.99	7.68	0.053	0.36	5.25	–	–	–
CN(C)C(=O)N1CCC[C@H](c2ccc(NC(=O)OCc3cnco3)cc2)C1 [Compound 376, oxazol-5-ylmethyl (R)-(4-(1-(dimethylcarbamoyl)piperidin-3-yl)phenyl)carbamate]	1	7.5	1.09	45.5	0.16	0.89	0.16	0.92	2.2, μM	16.5, μM	2.48, μM	104, μM	0.024	4.11	8.06	0.132	0.06	2.02	–	–	–
O=C(Nc1ccc(CC2CC3CCC(C2)N3S(=O)(=O)C2CC2)cc1)OCc1cnco1 (stereo not drawn) [Compound 395, oxazol-5-ylmethyl (4-((8-(cyclopropylsulfonyl)-8-azabicyclo[3.2.1]octan-3-yl)methyl)phenyl)carbamate]	–	–	–	–	–	–	–	–	–	–	–	–	–	–	–	–	0.12	3.2	–	–	PappAB [6]: 2.81; efflux ratio at 120 min, 1 μM (P-gp (MDR1) [7]): 5.02
CN(C)S(=O)(=O)N1CC2(CC(Cc3ccc(NC(=O)OCc4cnco4)cc3F)C2)C1 [Compound 399, oxazol-5-ylmethyl (4-((2-(N,N-dimethylsulfamoyl)-2-azaspiro[3.3]heptan-6-yl)methyl)-3-fluorophenyl)carbamate]	0.14	11.5	0.27	26.8	0.44	0.52	0.43	0.52	0.23, μM	19.5, μM	0.44, μM	44, μM	–	–	–	–	0.15	3.88	0.01	0.012	–
CN(C)C(=O)N1CC2(CC(c3ccc(NC(=O)OCc4cnco4)cc3F)C2)C1 [Compound 400, oxazol-5-ylmethyl (4-(2-(dimethylcarbamoyl)-2-azaspiro[3.3]heptan-6-yl)-3-fluorophenyl)carbamate]	0.08	1.4	0.14	3.1	0.43	0.53	0.43	0.57	0.31, μM	5.8, μM	0.58, μM	13.5, μM	–	–	–	–	0.11	15.4	0.043	0.054	–
CN(C)C(=O)N1CCC(Cc2ccc(NC(=O)OCc3cnco3)cc2F)CC1 [Compound 449, oxazol-5-ylmethyl (4-((1-(dimethylcarbamoyl)piperidin-4-yl)methyl)-3-fluorophenyl)carbamate]	0.28	8.4	0.39	18	0.42	0.64	0.47	0.72	0.83, μM	25.0, μM	1.30, μM	59.4, μM	0.022	5.74	3.53	0.033	0.10	2.93	–	–	–
